Measured values taken from publication PMC9944328 (Nature Communications, 2023).
“And” between values parts separate entries of the source, which are not always exact repeats. Identical values can stand only once.

Biological target: SSTR2 (Homo sapiens, UniProt P30874)
Test: SSTRs Gi-mediated cAMP inhibition, GloSensor, HEK293, 5 μM forskolin, 15 min room temperature (SSTR2 wild-type);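 as to Bottom (best-fit value): normalized to the maximal wild-type response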;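 as to Bottom (best-fit): normalized to the maximal wild-type response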;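 as to Span (best-fit value), cAMP inhibition: normalized to the maximal wild-type response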;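 as to Span (best-fit value): normalized to the maximal wild-type response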;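 as to Span (best-fit): normalized to the maximal wild-type response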;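 as to Span: normalized to the maximal wild-type response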;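 as to Top (best-fit): normalized to the maximal wild-type response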
Type: cell-based
Design: Best-fit Top, cAMP inhibition / Span, cAMP inhibition / Best-fit Bottom / Best-fit Top / Best-fit Span / Bottom / Span (best-fit value), cAMP inhibition / Top (best-fit value), cAMP inhibition: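 normalized to the maximal wild-type response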
Conditions: for Span / Top: best-fit, runs 1-3
Description: The levels of the intracellular 3′, 5′-cyclic AMP (cAMP) were measured by the GloSensor cAMP assay (Promega) as described in the previous studies[28],[41] which has been widely used. The human full-length SSTRs and mutants were cloned into the pcDNA3.1+ vector with a HA signal sequence followed by a Flag tag at the N-terminus. HEK293 cells (ATCC, CRL-1573) were seeded into 6-well microplates at a density of 1.0 × 10^6 cells/well and cultured for 24 h at 37 °C with 5% CO2. Cells were then co-transfected with SSTR wild-type or mutants and GloSensor plasmids. After 24 h of transfection, the cells were dissociated with TrypLE™ Express Enzyme (1X) (Thermo Fisher Scientific) and collected by centrifugation at 500 × g for 5 min. Then the collected cells were suspended in Hank’s balanced salt solution [HBSS (Thermo Fisher Scientific)] supplemented with […] (YEASEN), and then the suspension cells were seeded into 96-well plates with 90 μl/well. After incubating at room temperature for 40 min, 5 μM forskolin and ligands diluted in HBSS were added to each well and the plates were incubated at room temperature for 15 min. […] were measured using the Synergy H1 microplate reader (BioTek) and the data presented are means of at least three independent experiments.

[1] = WT-1 (run 1 of each mutant's batch)

Chain of SSTR2 (P30874 whole entry): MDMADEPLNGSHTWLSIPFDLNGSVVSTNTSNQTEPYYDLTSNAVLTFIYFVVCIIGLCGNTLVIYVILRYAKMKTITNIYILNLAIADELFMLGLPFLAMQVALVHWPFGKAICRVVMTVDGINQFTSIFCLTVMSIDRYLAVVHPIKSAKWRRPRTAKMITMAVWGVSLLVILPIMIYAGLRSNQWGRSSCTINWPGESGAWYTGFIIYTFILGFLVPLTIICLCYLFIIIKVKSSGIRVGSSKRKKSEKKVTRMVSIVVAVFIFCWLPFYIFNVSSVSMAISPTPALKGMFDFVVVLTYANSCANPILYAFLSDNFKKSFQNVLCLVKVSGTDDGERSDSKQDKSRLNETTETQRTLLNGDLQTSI

## N#Cc1cccc(-c2ccc3ncc(-c4cc(F)cc(F)c4)c(N4CCC(N)CC4)c3c2)c1O [paltusotine]
EC50, Gi signaling, SSTR2 WT, n=6
  EC50: 1.88 ± 3.15 nM
EC50, WT-1, run paired with D295F
  EC50: 0.307 nM
EC50, WT-1, run paired with F294Y
  EC50: 0.307 nM
EC50, WT-1, run paired with I195M
  EC50: 1.09 nM
EC50, WT-1, run paired with T194H
  EC50: 1.16 nM
EC50, WT-1, run paired with V103N
  EC50: 2.1 nM
EC50, WT-1, run paired with Y205R
  EC50: 0.537 nM
EC50, WT-2, run paired with D295F
  EC50: 0.501 nM
EC50, WT-2, run paired with F294Y
  EC50: 0.501 nM
EC50, WT-2, run paired with I195M
  EC50: 2.02 nM
EC50, WT-2, run paired with T194H
  EC50: 1.6 nM
EC50, WT-2, run paired with V103N
  EC50: 1.35 nM
EC50, WT-2, run paired with Y205R
  EC50: 0.536 nM
EC50, WT-3, run paired with D295F
  EC50: 1.09 nM
EC50, WT-3, run paired with F294Y
  EC50: 1.16 nM
EC50, WT-3, run paired with T194H
  EC50: 1.35 nM
EC50, WT-3, run paired with V103N
  EC50: 1.08 nM
EC50, WT-3, run paired with Y205R
  EC50: 2.1 nM
EC50, cAMP inhibition best-fit, D122A set, WT-1
  EC50: 2.35 nM
EC50, cAMP inhibition best-fit, D122A set, WT-2
  EC50: 2.66 nM
EC50, cAMP inhibition best-fit, D122A set, WT-3
  EC50: 0.501 nM
EC50, cAMP inhibition best-fit, F127A set, WT-1
  EC50: 1.55 nM
EC50, cAMP inhibition best-fit, F127A set, WT-2
  EC50: 1.16 nM
EC50, cAMP inhibition best-fit, F127A set, WT-3
  EC50: 0.298 nM
EC50, cAMP inhibition best-fit, I130A set, WT-1
  EC50: 0.295 nM
EC50, cAMP inhibition best-fit, I130A set, WT-2
  EC50: 0.321 nM
EC50, cAMP inhibition best-fit, I130A set, WT-3
  EC50: 1.13 nM
EC50, cAMP inhibition best-fit, Q102A set, WT-2
  EC50: 1.19 nM
EC50, cAMP inhibition best-fit, Q102A set, WT-3
  EC50: 1 nM
EC50, cAMP inhibition best-fit, Q126A set, WT-1
  EC50: 0.777 nM
EC50, cAMP inhibition best-fit, Q126A set, WT-2
  EC50: 1.58 nM
EC50, cAMP inhibition best-fit, Q126A set, WT-3
  EC50: 0.845 nM
EC50, cAMP inhibition best-fit, V103A set, WT-1
  EC50: 1.58 nM
EC50, cAMP inhibition best-fit, V103A set, WT-2
  EC50: 0.605 nM
EC50, cAMP inhibition best-fit, V103A set, WT-3
  EC50: 1.19 nM
EC50, subtype selectivity series, Suppl. Tables 4/5, SSTR2-WT, n=6
  EC50: 2.08 ± 1.39 nM
F208A panel, WT-1 (run 1)
  Bottom (best-fit value): -1.411
  LogEC50 (best-fit value): -9.3
  Span (best-fit value): 105.2
  Top (best-fit value): 103.8
F208A panel, WT-2 (run 2)
  Bottom (best-fit value): 4.431
  LogEC50 (best-fit value): -8.26
  Span (best-fit value): 92.56
  Top (best-fit value): 96.99
F208A panel, WT-3 (run 3)
  Bottom (best-fit value): 0.6589
  LogEC50 (best-fit value): -8.524
  Span (best-fit value): 92.36
  Top (best-fit value): 93.02
F265A panel, WT-1 (run 1)
  Bottom (best-fit value): -3.016
  LogEC50 (best-fit value): -8.949
  Span (best-fit value): 106.8
  Top (best-fit value): 103.7
F265A panel, WT-2 (run 2)
  Bottom (best-fit value): -3.466
  LogEC50 (best-fit value): -9.53
  Span (best-fit value): 116.5
  Top (best-fit value): 113
F265A panel, WT-3 (run 3)
  Bottom (best-fit value): -6.932
  LogEC50 (best-fit value): -9.494
  Span (best-fit value): 126.2
  Top (best-fit value): 119.3
F272A panel, WT-1 (run 1)
  Bottom (best-fit value): -5.769
  Top (best-fit value): 108
F272A panel, WT-2 (run 2)
  Bottom (best-fit value): -4.038
  Top (best-fit value): 107.8
F272A panel, WT-3 (run 3)
  Bottom (best-fit value): -0.5501
  Top (best-fit value): 106.1
Gi signaling EC50, SSTR2 WT
  Fold of WT: 1
HEK293
  Emax: 100%
P220A panel, WT-1 (run 1)
  Bottom (best-fit value): -3.466
  LogEC50 (best-fit value): -9.53
  Span (best-fit value): 116.5
  Top (best-fit value): 113
P220A panel, WT-2 (run 2)
  Bottom (best-fit value): -6.932
  LogEC50 (best-fit value): -9.494
  Span (best-fit value): 126.2
  Top (best-fit value): 119.3
P220A panel, WT-3 (run 3)
  Bottom (best-fit value): -3.016
  LogEC50 (best-fit value): -8.949
  Span (best-fit value): 106.8
  Top (best-fit value): 103.7
SSTR2, Fig. 1
  Activation potency level: nanomolar level
Suppl. Tables 4/5, SSTR2-WT
  Fold of WT: 1.00
W269A panel, WT-1 (run 1)
  Bottom (best-fit value): -3.016
  LogEC50 (best-fit value): -8.949
  Span (best-fit value): 106.8
  Top (best-fit value): 103.7
W269A panel, WT-2 (run 2)
  Bottom (best-fit value): -3.466
  LogEC50 (best-fit value): -9.53
  Span (best-fit value): 116.5
  Top (best-fit value): 113
W269A panel, WT-3 (run 3)
  Bottom (best-fit value): -6.932
  LogEC50 (best-fit value): -9.494
  Span (best-fit value): 126.2
  Top (best-fit value): 119.3
WT (I195A set)
  Span: 93.39 and 87.67 and 121.7
  Top: 108 and 99.03 and 119.3
WT (I195A set), run 1, best-fit
  LogEC50: -8.654
WT (I195A set), run 2, best-fit
  LogEC50: -8.922
WT (I195A set), run 3, best-fit
  LogEC50: -8.801
WT (I284A set)
  Span: 107.7 and 93.27 and 111.5
  Top: 108.3 and 104.9 and 129.6
WT (I284A set), run 1, best-fit
  LogEC50: -8.585
WT (I284A set), run 2, best-fit
  LogEC50: -8.622
WT (I284A set), run 3, best-fit
  LogEC50: -8.252
WT (L99A set)
  Span: 106.7 and 113.8 and 111.8
  Top: 106.1 and 108 and 107.8
WT (L99A set), run 1, best-fit
  LogEC50: -8.998
WT (L99A set), run 2, best-fit
  LogEC50: -8.575
WT (L99A set), run 3, best-fit
  LogEC50: -8.63
WT (T194A set)
  Span: 106.7 and 111.2 and 111
  Top: 106.1 and 108.7 and 106.2
WT (T194A set), run 1, best-fit
  LogEC50: -8.998
WT (T194A set), run 2, best-fit
  LogEC50: -8.908
WT (T194A set), run 3, best-fit
  LogEC50: -8.937
WT (Y50A set)
  Span: 113.7 and 115.8 and 115.1
  Top: 113.6 and 115.8 and 115.7
WT (Y50A set), run 1, best-fit
  LogEC50: -8.071
WT (Y50A set), run 2, best-fit
  LogEC50: -8.114
WT (Y50A set), run 3, best-fit
  LogEC50: -8.128
[1]
  Span (best-fit value), cAMP inhibition: 113.8 and 111.2 and 111.8 and 104.8 and 106.7
  Top (best-fit value), cAMP inhibition: 108.7 and 107.8 and 108 and 105.3 and 106.1
WT-1, run paired with D295F
  Bottom (best-fit): 3.567
  LogEC50: -9.512
  Span (best-fit): 103.1
  Top (best-fit): 106.7
WT-1, run paired with F294Y
  Bottom (best-fit): 3.567
  LogEC50: -9.512
  Span (best-fit): 103.1
  Top (best-fit): 106.7
WT-1, run paired with I195M
  Bottom (best-fit): 12.84
  LogEC50: -8.964
  Span (best-fit): 85.7
  Top (best-fit): 98.54
WT-1, run paired with T194H
  Bottom (best-fit): -4.818
  LogEC50: -8.937
